pIC50, pKi: −log10 of the molar value.
How the values were obtained:
[1] = organism: Cavia porcellus; assay: animal or person; conditions: albino Dunkin-Hartley, 1 h, read-out: INH
Description: Inhibition of acetylcholine induced bronchoconstriction in male albino Dunkin-Hartley guinea pig model at 1 nmol/kg, IT(Intratracheal) preadministered with compound followed by acetylcholine addition at 5 to 30 mins in presence of ICI-118551 and measured 1 hrs post compound treatment relative to control

[2] = system: Cavia porcellus; assay: Inhibition of acetylcholine induced bronchoconstriction in male albino Dunkin-Hartley guinea pig model at 1 nmol/kg, IT(Intratracheal) preadministered with compound followed by acetylcholine addition at 5 to 30 mins and measured 1 hrs post compound treatment relative to control; conditions: read-out: INH
[3] = organism: Cavia porcellus; assay: animal or person; conditions: albino Dunkin-Hartley, 24 h, read-out: INH
Description: Inhibition of acetylcholine induced bronchoconstriction in male albino Dunkin-Hartley guinea pig model at 1 nmol/kg, IT(Intratracheal) preadministered with compound followed by acetylcholine addition at 5 to 30 mins in presence of ICI-118551 and measured 24 hrs post compound treatment relative to control

[4] = system: Cavia porcellus; assay: Inhibition of histamine induced bronchoconstriction in male albino Dunkin-Hartley guinea pig model at 1 nmol/kg, IT(Intratracheal) preadministered with compound followed by histamine addition at 5 to 30 mins and measured 1 hrs post compound treatment relative to control; conditions: read-out: INH
[5] = system: Cavia porcellus; assay: Inhibition of acetylcholine induced bronchoconstriction in male albino Dunkin-Hartley guinea pig model at 1 nmol/kg, IT(Intratracheal) preadministered with compound followed by acetylcholine addition at 5 to 30 mins and measured 24 hrs post compound treatment relative to control; conditions: read-out: INH
[6] = system: Cavia porcellus; assay: Inhibition of histamine induced bronchoconstriction in male albino Dunkin-Hartley guinea pig model at 1 nmol/kg, IT(Intratracheal) preadministered with compound followed by histamine addition at 5 to 30 mins and measured 24 hrs post compound treatment relative to control; conditions: read-out: INH
[7] = Stability in guinea pig lung S9 fraction at 1 uM incubated for 60 mins by LC-MS/MS analysis
[8] = system: Trachea; assay: Inhibition of carbachol-induced smooth muscle contraction in male albino Dunkin-Hartley guinea pig trachea; conditions: Cavia porcellus, read-out: pIC50 (converted)
[9] = target: Muscarinic acetylcholine receptor M3 (Homo sapiens, UniProt P20309)
Sequence of Muscarinic acetylcholine receptor M3 (Homo sapiens, UniProt P20309) (P20309 whole entry): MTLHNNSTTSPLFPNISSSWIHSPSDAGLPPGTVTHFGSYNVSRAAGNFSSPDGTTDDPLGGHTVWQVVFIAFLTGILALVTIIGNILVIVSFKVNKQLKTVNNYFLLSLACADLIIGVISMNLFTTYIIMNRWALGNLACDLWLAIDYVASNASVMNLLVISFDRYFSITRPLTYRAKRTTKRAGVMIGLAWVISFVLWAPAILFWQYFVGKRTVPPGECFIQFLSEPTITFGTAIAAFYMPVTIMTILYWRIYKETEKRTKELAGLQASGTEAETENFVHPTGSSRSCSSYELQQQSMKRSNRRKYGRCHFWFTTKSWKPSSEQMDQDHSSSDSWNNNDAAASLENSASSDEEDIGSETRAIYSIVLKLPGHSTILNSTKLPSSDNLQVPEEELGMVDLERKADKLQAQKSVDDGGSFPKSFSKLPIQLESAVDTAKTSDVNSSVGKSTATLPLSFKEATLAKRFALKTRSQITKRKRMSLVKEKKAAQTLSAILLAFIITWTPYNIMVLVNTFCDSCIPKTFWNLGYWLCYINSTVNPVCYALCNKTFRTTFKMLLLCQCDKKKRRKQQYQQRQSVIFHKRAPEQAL
Description: Displacement of Scopolamine methyl chloride,[N-methyl-3H] from human muscarinic M3 receptor assessed as inhibition constant incubated for 2 hrs by Microbeta scintillation counter

[10] = target: Beta-2 adrenergic receptor (Cavia porcellus, UniProt Q8K4Z4); assay: Agonist activity at beta2 adrenoceptor in male albino Dunkin-Hartley guinea pig trachea assessed as inhibition of histamine induced smooth muscle contraction
Sequence of Beta-2 adrenergic receptor (Cavia porcellus, UniProt Q8K4Z4) (Q8K4Z4 whole entry): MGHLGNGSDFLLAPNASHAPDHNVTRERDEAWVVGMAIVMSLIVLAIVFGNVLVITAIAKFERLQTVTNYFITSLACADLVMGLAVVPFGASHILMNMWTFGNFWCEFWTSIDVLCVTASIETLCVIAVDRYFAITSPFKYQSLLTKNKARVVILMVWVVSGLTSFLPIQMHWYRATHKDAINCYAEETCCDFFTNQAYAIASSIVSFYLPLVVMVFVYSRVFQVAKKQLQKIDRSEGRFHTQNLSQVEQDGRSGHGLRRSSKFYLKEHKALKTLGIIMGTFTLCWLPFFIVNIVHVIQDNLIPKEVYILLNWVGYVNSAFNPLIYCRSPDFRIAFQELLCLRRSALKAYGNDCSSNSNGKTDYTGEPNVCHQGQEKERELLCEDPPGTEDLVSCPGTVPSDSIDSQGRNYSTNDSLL

[11] = target: Muscarinic acetylcholine receptor M3 (Cavia porcellus, UniProt Q8VH26); assay: Antagonist activity at M3 receptor in male albino Dunkin-Hartley guinea pig trachea assessed as inhibition of carbachol-induced smooth muscle contraction in presence of propranolol
Sequence of Muscarinic acetylcholine receptor M3 (Cavia porcellus, UniProt Q8VH26) (Q8VH26 whole entry): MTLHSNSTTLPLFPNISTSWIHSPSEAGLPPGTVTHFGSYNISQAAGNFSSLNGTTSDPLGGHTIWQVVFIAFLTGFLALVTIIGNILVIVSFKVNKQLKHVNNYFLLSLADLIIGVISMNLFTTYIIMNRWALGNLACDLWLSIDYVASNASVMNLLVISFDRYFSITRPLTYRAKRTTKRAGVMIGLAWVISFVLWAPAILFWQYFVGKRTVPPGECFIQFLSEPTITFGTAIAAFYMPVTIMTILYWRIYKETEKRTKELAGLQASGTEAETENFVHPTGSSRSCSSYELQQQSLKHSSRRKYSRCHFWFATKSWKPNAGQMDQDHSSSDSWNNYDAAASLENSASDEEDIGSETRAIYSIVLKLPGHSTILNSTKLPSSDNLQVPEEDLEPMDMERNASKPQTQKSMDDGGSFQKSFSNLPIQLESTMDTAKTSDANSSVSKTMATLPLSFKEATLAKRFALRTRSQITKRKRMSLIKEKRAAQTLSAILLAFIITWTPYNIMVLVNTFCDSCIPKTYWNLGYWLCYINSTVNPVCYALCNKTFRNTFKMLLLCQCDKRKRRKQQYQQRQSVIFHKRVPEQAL

[12] = target: Beta-2 adrenergic receptor (Homo sapiens, UniProt P07550)
Sequence of Beta-2 adrenergic receptor (Homo sapiens, UniProt P07550) (P07550 whole entry): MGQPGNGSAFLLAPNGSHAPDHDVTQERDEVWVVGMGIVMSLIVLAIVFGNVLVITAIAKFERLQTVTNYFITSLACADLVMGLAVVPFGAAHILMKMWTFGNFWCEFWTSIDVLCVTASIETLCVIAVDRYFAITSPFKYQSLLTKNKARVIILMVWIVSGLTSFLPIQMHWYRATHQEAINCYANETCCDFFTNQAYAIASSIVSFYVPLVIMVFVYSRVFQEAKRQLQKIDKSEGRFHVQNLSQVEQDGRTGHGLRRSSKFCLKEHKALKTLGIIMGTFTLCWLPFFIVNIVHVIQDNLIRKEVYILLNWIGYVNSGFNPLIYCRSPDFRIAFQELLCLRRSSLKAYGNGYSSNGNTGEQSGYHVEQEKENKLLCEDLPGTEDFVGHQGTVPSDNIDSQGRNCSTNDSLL
Description: Displacement of [125I]-Cyanopindolol from human beta2 adrenoceptor assessed as inhibition constant incubated for 1 hrs by Microbeta scintillation counter

[13] = in vitro; conditions: guinea pig, plasma
Description: Stability in guinea pig plasma assessed as half-life at 5 uM incubated for 120 mins by LC-MS/MS analysis

[14] = in vitro; conditions: rat, plasma
Description: Stability in rat plasma assessed as half-life at 5 uM incubated for 120 mins by LC-MS/MS analysis

[15] = in vitro; conditions: human, plasma
Description: Stability in human plasma assessed as half-life at 5 uM incubated for 120 mins by LC-MS/MS analysis

[16] = in vitro; conditions: rat, hepatocytes
Description: Metabolic stability in rat hepatocytes assessed as clearance measured per 10^6 cells at 1 uM incubated for 90 mins by LC-MS/MS analysis

[17] = in vitro; conditions: human, hepatocytes
Description: Metabolic stability in human hepatocytes assessed as clearance measured per 10^6 cells at 1 uM incubated for 90 mins by LC-MS/MS analysis

[18] = organism: Cavia porcellus; assay: animal or person; conditions: albino Dunkin-Hartley, 1 h, read-out: INH; remark: listed apart in the source
Description: Inhibition of acetylcholine induced bronchoconstriction in male albino Dunkin-Hartley guinea pig model at 0.3 nmol/kg, IT(Intratracheal) preadministered with compound followed by acetylcholine addition at 5 to 30 mins in presence of ICI-118551 and measured 1 hrs post compound treatment relative to control

[19] = system: Cavia porcellus; assay: Inhibition of histamine induced bronchoconstriction in male albino Dunkin-Hartley guinea pig model at 0.3 nmol/kg, IT(Intratracheal) preadministered with compound followed by histamine addition at 5 to 30 mins and measured 1 hrs post compound treatment relative to control; conditions: read-out: INH
[20] = in vitro; conditions: human, lung S9 fraction
Description: Stability in human lung S9 fraction assessed as half-life at 1 uM incubated for 60 mins by LC-MS/MS analysis

[21] = system: Cavia porcellus; assay: Inhibition of acetylcholine induced bronchoconstriction in male albino Dunkin-Hartley guinea pig model at 0.3 nmol/kg, IT(Intratracheal) preadministered with compound followed by acetylcholine addition at 5 to 30 mins and measured 16 hrs post compound treatment relative to control; conditions: read-out: INH
[22] = system: Cavia porcellus; assay: Inhibition of histamine induced bronchoconstriction in male albino Dunkin-Hartley guinea pig model at 0.3 nmol/kg, IT(Intratracheal) preadministered with compound followed by histamine addition at 5 to 30 mins and measured 16 hrs post compound treatment relative to control; conditions: read-out: INH
[23] = system: Cavia porcellus; assay: Inhibition of acetylcholine induced bronchoconstriction in male albino Dunkin-Hartley guinea pig model at 0.3 nmol/kg, IT(Intratracheal) preadministered with compound followed by acetylcholine addition at 5 to 30 mins and measured 1 hrs post compound treatment relative to control; conditions: read-out: INH
[24] = in vitro; conditions: guinea pig, hepatocytes
Description: Metabolic stability in guinea pig hepatocytes assessed as clearance measured per 10^6 cells at 1 uM incubated for 90 mins by LC-MS/MS analysis

[25] = in vitro; conditions: rat, lung S9 fraction
Description: Stability in rat lung S9 fraction assessed as half-life at 1 uM incubated for 60 mins by LC-MS/MS analysis

[26] = organism: Cavia porcellus; assay: animal or person; conditions: albino Dunkin-Hartley, 16 h, read-out: INH
Description: Inhibition of acetylcholine induced bronchoconstriction in male albino Dunkin-Hartley guinea pig model at 0.3 nmol/kg, IT(Intratracheal) preadministered with compound followed by acetylcholine addition at 5 to 30 mins in presence of ICI-118551 and measured 16 hrs post compound treatment relative to control

[27] = in vitro; conditions: guinea pig, lung S9 fraction
Description: Stability in guinea pig lung S9 fraction assessed as half-life at 1 uM incubated for 60 mins by LC-MS/MS analysis

[28] = target: Voltage-gated inwardly rectifying potassium channel KCNH2 (Homo sapiens, UniProt Q12809)
Description: Inhibition of human ERG by patch clamp assay

[29] = target: Sodium channel protein type 5 subunit alpha (Homo sapiens, UniProt Q14524)
Sequence of Sodium channel protein type 5 subunit alpha (Q14524 whole entry): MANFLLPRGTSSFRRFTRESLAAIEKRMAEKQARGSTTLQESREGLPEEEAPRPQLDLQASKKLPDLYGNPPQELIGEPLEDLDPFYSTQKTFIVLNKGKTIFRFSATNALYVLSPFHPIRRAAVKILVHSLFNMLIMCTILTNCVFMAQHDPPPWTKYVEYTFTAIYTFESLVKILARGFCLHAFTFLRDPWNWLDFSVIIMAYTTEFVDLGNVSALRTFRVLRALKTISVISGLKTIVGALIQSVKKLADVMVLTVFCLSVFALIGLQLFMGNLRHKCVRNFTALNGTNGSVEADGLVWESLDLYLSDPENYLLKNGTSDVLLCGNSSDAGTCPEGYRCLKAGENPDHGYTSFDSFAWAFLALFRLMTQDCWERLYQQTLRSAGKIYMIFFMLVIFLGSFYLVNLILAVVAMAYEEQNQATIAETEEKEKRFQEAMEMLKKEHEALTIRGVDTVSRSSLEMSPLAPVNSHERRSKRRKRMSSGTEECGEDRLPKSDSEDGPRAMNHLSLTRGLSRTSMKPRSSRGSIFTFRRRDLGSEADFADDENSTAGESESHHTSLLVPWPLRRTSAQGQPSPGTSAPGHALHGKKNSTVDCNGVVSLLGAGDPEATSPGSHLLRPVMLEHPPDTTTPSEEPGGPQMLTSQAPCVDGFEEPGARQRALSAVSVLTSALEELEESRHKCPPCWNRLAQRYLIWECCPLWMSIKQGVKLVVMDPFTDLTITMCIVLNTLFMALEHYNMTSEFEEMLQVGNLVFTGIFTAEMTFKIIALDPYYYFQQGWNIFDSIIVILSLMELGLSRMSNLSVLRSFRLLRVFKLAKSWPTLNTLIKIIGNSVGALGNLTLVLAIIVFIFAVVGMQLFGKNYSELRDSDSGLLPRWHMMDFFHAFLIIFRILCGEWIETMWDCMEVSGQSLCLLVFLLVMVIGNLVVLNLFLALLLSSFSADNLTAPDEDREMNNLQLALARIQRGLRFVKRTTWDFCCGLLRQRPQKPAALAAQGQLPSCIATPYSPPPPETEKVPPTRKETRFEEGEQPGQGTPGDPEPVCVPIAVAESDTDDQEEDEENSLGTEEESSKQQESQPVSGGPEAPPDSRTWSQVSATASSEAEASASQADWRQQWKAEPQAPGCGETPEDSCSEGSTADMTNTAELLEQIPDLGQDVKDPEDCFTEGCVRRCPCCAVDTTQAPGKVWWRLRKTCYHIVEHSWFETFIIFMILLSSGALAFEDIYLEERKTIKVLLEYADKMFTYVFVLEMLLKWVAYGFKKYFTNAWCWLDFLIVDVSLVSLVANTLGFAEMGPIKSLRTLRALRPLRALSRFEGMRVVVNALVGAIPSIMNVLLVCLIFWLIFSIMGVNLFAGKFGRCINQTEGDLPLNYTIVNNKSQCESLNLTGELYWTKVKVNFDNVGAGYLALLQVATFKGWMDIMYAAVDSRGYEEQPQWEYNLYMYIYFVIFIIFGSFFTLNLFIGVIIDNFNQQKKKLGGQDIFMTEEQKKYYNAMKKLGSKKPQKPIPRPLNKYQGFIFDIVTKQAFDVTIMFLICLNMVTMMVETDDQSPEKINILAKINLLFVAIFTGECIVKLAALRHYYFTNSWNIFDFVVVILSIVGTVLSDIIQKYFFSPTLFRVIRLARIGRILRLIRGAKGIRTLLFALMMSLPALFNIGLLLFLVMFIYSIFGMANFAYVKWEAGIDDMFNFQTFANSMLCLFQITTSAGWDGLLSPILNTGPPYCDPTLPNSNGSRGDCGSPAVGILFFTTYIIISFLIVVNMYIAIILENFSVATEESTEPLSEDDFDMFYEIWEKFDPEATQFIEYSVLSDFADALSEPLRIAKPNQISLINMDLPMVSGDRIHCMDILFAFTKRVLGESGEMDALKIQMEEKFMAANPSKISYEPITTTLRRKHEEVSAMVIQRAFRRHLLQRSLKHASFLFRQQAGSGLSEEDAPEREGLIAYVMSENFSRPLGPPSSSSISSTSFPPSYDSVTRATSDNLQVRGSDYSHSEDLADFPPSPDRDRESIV
Description: Inhibition of human Nav1.5

[30] = target: Voltage-dependent L-type calcium channel subunit alpha-1C (Homo sapiens, UniProt Q13936)
Description: Inhibition of human Cav1.2

[31] = system: Cavia porcellus; assay: Inhibition of acetylcholine induced bronchoconstriction in male albino Dunkin-Hartley guinea pig model at 3 nmol/kg, IT(Intratracheal) preadministered with compound followed by acetylcholine addition at 5 to 30 mins and measured 1 hrs post compound treatment relative to control; conditions: read-out: INH
[32] = organism: Cavia porcellus; assay: animal or person; conditions: albino Dunkin-Hartley, 1 h, read-out: INH; remark: listed apart in the source
Description: Inhibition of acetylcholine induced bronchoconstriction in male albino Dunkin-Hartley guinea pig model at 3 nmol/kg, IT(Intratracheal) preadministered with compound followed by acetylcholine addition at 5 to 30 mins in presence of ICI-118551 and measured 1 hrs post compound treatment relative to control

[33] = Protein binding in human plasma at 5 uM incubated for 4 hrs by LC-MS/MS analysis
[34] = system: Cavia porcellus; assay: Inhibition of histamine induced bronchoconstriction in male albino Dunkin-Hartley guinea pig model at 3 nmol/kg, IT(Intratracheal) preadministered with compound followed by histamine addition at 5 to 30 mins and measured 1 hrs post compound treatment relative to control; conditions: read-out: INH

Structure (SMILES)	IC50 [8]	pKi [9]	pIC50 [10]	pIC50 [11]	pKi [12]	half-life at 2 h, 5 µM [13]	half-life at 2 h, 5 µM [14]	half-life at 2 h, 5 µM [15]	hepatocyte CLint at 1.5 h, 1 µM [16]	hepatocyte CLint at 1.5 h, 1 µM [17]	half-life at 1 h, 1 µM [20]	half-life at 1 h, 1 µM [25]	half-life at 1 h, 1 µM [27]	further results
Cn1nc(C(=O)OCCCCNC[C@H](O)c2ccc(O)c3[nH]c(=O)ccc23)cc1COc1cccc([C@@H](NC(=O)O[C@H]2CN3CCC2CC3)c2ccccc2)c1														inhibition in vivo at 0.001 µmol/kg [1]: 84%; inhibition in vivo at 0.001 µmol/kg [2]: 93%; inhibition in vivo at 0.001 µmol/kg [3]: 45%; inhibition in vivo at 0.001 µmol/kg [4]: 73%; inhibition in vivo at 0.001 µmol/kg [5]: 71%; inhibition in vivo at 0.001 µmol/kg [6]: 51%; remaining at 1 h, 1 µM [7]: 98.5%
O=C(N[C@@H](c1ccccc1)c1cccc(OCc2cccc(C(=O)NCCCCNC[C@H](O)c3ccc(O)c4[nH]c(=O)ccc34)c2)c1)O[C@H]1CN2CCC1CC2	0.794 nM	10.20	9.00	9.10	10.90									
COc1cc(C(=O)NCCCOc2cccc([C@](O)(C(=O)OCC3CCN(CC4CC4)CC3)c3ccccc3)c2)c(F)cc1CNC[C@H](O)c1ccc(O)c2[nH]c(=O)ccc12.O=CO.O=CO		11.00			9.50	> 2.5 h	0.25 h	> 2.5 h	47 µL/min/1e6 cells	9 µL/min/1e6 cells				
CCN1CCC(COC(=O)[C@](O)(c2ccccc2)c2cccc(OCCCNC(=O)c3cc(OC)c(CNC[C@H](O)c4ccc(O)c5[nH]c(=O)ccc45)cc3F)c2)CC1.O=C(O)C(F)(F)F.O=C(O)C(F)(F)F	0.501 nM	10.90	8.50	8.50	9.30	> 2.5 h	0.933 h	> 2.5 h	27 µL/min/1e6 cells	2 µL/min/1e6 cells	4.67 h	4.67 h	4.67 h	inhibition in vivo at 0.0003 µmol/kg [18]: 61%; inhibition in vivo at 0.0003 µmol/kg [19]: 85%; inhibition in vivo at 0.0003 µmol/kg [21]: 62%; inhibition in vivo at 0.0003 µmol/kg [22]: 60%; inhibition in vivo at 0.0003 µmol/kg [23]: 78%; hepatocyte CLint at 1.5 h, 1 µM [24]: 60 µL/min/1e6 cells; remaining at 1 h, 1 µM [7]: 96.5%; inhibition in vivo at 0.0003 µmol/kg [26]: 51%
O=C(NCCCOc1cccc([C@](O)(C(=O)O)c2ccccc2)c1)c1ccc(CNC[C@H](O)c2ccc(O)c3[nH]c(=O)ccc23)cc1		< 7.30												pIC50 [28]: < 3.82; pIC50 [29]: < 3.82; pIC50 [30]: < 3.82
O=C(N[C@@H](c1ccccc1)c1cccc(OCc2ccc(C(=O)NCCCNC[C@H](O)c3ccc(O)c4[nH]c(=O)ccc34)cc2)c1)O[C@@H]1CN2CCC1CC2	0.158 nM	10.00	9.80	9.70	10.90									
O=C(NCCCNC[C@H](O)c1ccc(O)c2[nH]c(=O)ccc12)c1ccc(COc2cccc([C@@](O)(C(=O)OCC3CCN(Cc4ccccc4)CC3)c3ccccc3)c2)cc1	0.02 nM	8.50	9.70	8.30	10.50									
COc1cc(C(=O)NCCCOc2cccc([C@](O)(C(=O)OCC3CCN(Cc4ccccc4)CC3)c3ccccc3)c2)c(F)cc1CNC[C@H](O)c1ccc(O)c2[nH]c(=O)ccc12		11.00	10.00	9.10	9.60	0.133 h	0.917 h	> 2.5 h	33 µL/min/1e6 cells	20 µL/min/1e6 cells	1.92 h	1.85 h	0.433 h	
COc1cc(C(=O)NCCCOc2cccc([C@](O)(C(=O)OCC3CCN(Cc4ccccc4)CC3)c3ccccc3)c2)ccc1CNC[C@H](O)c1ccc(O)c2[nH]c(=O)ccc12		10.70	10.90	9.90	9.40	0.1 h	0.6 h	> 2.5 h	60 µL/min/1e6 cells	20 µL/min/1e6 cells	4 h	3.95 h	0.483 h	
O=C(NCc1ccc(-c2cccc([C@](O)(C(=O)OCC3CCN(Cc4ccccc4)CC3)c3ccccc3)c2)s1)c1ccc(CNC[C@H](O)c2ccc(O)c3[nH]c(=O)ccc23)cc1		9.60			8.60	0.217 h	> 2.5 h	> 2.5 h	50 µL/min/1e6 cells	12 µL/min/1e6 cells	1.47 h	2.1 h	2.1 h	hepatocyte CLint at 1.5 h, 1 µM [24]: 295 µL/min/1e6 cells
O=C(NCCCNC[C@H](O)c1ccc(O)c2[nH]c(=O)ccc12)c1ccc(COc2cccc([C@](O)(C(=O)OCC3CCN(Cc4ccccc4)CC3)c3ccccc3)c2)cc1	0.126 nM	9.60	9.70	9.70	10.70									
O=C(c1ccc(CCNC[C@H](O)c2ccc(O)c3[nH]c(=O)ccc23)cc1)N1CCC(c2cccc([C@](O)(C(=O)OCC3CCN(Cc4ccccc4)CC3)c3ccccc3)c2)CC1		10.20	9.20	8.70	9.40	0.267 h	0.533 h	> 2.5 h	36 µL/min/1e6 cells	13 µL/min/1e6 cells	3 h	2.47 h	1.9 h	
O=C(NCCCCNC[C@H](O)c1ccc(O)c2[nH]c(=O)ccc12)c1ccc(CNC2(C(=O)O[C@H]3CN4CCC3CC4)CCc3ccccc32)cc1 (mixture of isomers)	1.58 nM	9.90	8.60	8.50	9.30									
O=C(NCCCCNC[C@H](O)c1ccc(O)c2[nH]c(=O)ccc12)c1ccc(CNC2(C(=O)OCC3CCN(Cc4ccccc4)CC3)CCc3ccccc32)s1 (mixture of isomers; 32)	0.0501 nM	8.40	10.60	9.00	10.20			> 2.5 h						half-life at 1 h, 1 µM ([20]; t1/2): 1.62 h; half-life at 2 h, 5 µM ([14]; t1/2): 0.5 h; hepatocyte CLint at 1.5 h, 1 µM ([16]; CLH): 44 µL/min/1e6 cells; half-life at 1 h, 1 µM ([25]; t1/2): 2.35 h; hepatocyte CLint at 1.5 h, 1 µM ([17]; CLH): 13 µL/min/1e6 cells
O=C(NCCCCNC[C@H](O)c1ccc(O)c2[nH]c(=O)ccc12)c1ccc(CNC2(C(=O)OCC3CCN(Cc4ccccc4)CC3)CCc3ccccc32)s1 (mixture of isomers; 33)		8.70	10.20	9.10	10.50									inhibition in vivo at 0.003 µmol/kg [31]: 96%; inhibition in vivo at 0.003 µmol/kg [32]: 60%; fraction unbound at 4 h, 5 µM [33]: 0.06; inhibition in vivo at 0.003 µmol/kg [34]: 83%
O=C(c1ccc(OCc2ccc(CNC[C@H](O)c3ccc(O)c4[nH]c(=O)ccc34)cc2)cc1)N1CC(C(=O)OC2CN3CCC2CC3)(c2ccccc2)C1 (single isomer, unassigned)	1 nM	9.50	9.00	9.00	9.20									
